Measured values taken from ChEMBL document CHEMBL4706484, “Apigenin-rivastigmine hybrids as multi-target-directed liagnds for the treatment of Alzheimer's disease” (Eur J Med Chem, 2020).
Activity calls are given as the source filed them. The rule behind the calls is not given here.

Tests used:
[1] = Acute toxicity in 2 dpf zebrafish assessed as maximum non-lethal concentration measured after 3 days; design: species or system Danio rerio; conditions: in vivo, time 3 day
[2] = biological target: Amyloid-beta precursor protein (Homo sapiens) (UniProt P05067); assay: Disaggregation of self-induced amyloid beta (1 to 42) (unknown origin) preformed fibrils at 25 uM by ThT fluorescence assay relative to control
Chain of Amyloid-beta precursor protein (Homo sapiens) (P05067 whole entry): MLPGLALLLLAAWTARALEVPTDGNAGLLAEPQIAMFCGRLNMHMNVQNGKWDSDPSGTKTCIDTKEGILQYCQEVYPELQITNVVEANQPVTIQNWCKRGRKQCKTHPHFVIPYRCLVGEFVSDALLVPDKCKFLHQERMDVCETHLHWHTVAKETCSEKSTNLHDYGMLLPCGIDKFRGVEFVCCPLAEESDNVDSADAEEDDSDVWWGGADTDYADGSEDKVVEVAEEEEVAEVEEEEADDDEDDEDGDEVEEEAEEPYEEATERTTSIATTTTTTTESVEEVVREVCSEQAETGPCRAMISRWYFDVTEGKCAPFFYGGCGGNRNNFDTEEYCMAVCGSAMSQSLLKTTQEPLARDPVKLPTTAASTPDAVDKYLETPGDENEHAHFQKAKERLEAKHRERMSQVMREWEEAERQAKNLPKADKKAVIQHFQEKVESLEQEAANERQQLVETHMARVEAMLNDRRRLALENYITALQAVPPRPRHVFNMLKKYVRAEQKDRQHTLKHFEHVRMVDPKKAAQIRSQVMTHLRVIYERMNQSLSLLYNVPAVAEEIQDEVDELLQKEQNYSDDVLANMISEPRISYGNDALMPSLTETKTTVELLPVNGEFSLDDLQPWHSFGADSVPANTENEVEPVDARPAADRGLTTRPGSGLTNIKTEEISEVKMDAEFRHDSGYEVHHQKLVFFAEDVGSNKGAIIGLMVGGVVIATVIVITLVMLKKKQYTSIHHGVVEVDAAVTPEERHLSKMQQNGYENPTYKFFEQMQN

[3] = Acute toxicity in 2 dpf zebrafish assessed as abnormal pigmentation at 1.39 to 12.5 ug/ml measured after 3 days; design: species or system Danio rerio; conditions: in vivo, 72 h, dose 1.39-12.5 µg/ml, time 3 day
[4] = tested on: Mus musculus; assay: Antialzheimer activity in scopolamine-induced Kunming mouse model of memory impairment assessed as total mapped in brain hippocampus at 10 mg/kg by illumina sequencing method (reference value: 97.13 %); type: functional
[5] = biological target: T1, Acetylcholinesterase (Rattus norvegicus, UniProt P37136); assay: Inhibition of rat cortex AChE using acetylthiocholine iodide as substrate measured after 15 mins by Ellman's method; type: tissue-based
T1 sequence (P37136 whole entry): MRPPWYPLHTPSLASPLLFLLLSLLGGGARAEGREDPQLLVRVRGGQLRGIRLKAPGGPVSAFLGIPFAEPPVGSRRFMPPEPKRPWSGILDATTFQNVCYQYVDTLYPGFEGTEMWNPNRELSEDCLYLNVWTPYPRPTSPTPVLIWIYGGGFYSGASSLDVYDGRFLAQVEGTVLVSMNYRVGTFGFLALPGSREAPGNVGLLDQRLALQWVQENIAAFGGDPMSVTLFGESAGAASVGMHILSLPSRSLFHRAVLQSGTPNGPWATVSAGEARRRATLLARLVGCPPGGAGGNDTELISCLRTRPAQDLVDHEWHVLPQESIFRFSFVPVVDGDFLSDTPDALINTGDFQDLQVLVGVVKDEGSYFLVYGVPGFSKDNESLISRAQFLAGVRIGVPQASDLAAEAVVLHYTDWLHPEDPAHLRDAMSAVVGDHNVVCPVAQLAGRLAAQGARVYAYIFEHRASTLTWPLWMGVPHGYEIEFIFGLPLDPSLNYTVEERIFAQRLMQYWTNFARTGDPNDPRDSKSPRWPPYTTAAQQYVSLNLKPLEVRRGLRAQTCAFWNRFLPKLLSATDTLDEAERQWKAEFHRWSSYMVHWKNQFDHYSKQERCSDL

[6] = tested on: Mus musculus; assay: Reversal of scopolamine-induced Kunming mouse model of memory impairment assessed as spontaneous alteration at 5 mg/kg by Y-maze test; type: functional, organism-based
[7] = tested on: Mus musculus; assay: Cognitive enhancing effect in scopolamine-induced Kunming mouse model of memory impairment assessed as effect on total arm entries at 5 to 20 mg/kg by Y-maze test; type: functional, organism-based; conditions: dose 5-20 mg/kg
[8] = species: Danio rerio; assay: Protection against amyloid beta (1 to 40 residues)-induced vascular injury in transgenic zebrafish assessed as efficacy on motility at 1.4 ug/ml relative to control; type: functional; conditions: dose 1.4 µg/ml
[9] = Acute toxicity in 2 dpf zebrafish assessed as effect on liver at 1.39 to 12.5 ug/ml measured after 3 days; design: species or system Danio rerio; conditions: in vivo, 72 h, dose 1.39-12.5 µg/ml, time 3 day
[10] = Acute toxicity in 2 dpf zebrafish assessed as pericardial edema at 1.39 to 12.5 ug/ml measured after 3 days; design: species or system Danio rerio; conditions: in vivo, 72 h, dose 1.39-12.5 µg/ml, time 3 day
[11] = biological target: Cholinesterase (Homo sapiens, UniProt P06276); assay: Pseudo-irreversible inhibition of human serum BChE assessed as enzyme recovery activity at IC50 using diluted compound relative to control; type: cell-free; design: scale not given: the % may be the effect or the level left
Chain of Cholinesterase (P06276 whole entry, the tested form may be a part): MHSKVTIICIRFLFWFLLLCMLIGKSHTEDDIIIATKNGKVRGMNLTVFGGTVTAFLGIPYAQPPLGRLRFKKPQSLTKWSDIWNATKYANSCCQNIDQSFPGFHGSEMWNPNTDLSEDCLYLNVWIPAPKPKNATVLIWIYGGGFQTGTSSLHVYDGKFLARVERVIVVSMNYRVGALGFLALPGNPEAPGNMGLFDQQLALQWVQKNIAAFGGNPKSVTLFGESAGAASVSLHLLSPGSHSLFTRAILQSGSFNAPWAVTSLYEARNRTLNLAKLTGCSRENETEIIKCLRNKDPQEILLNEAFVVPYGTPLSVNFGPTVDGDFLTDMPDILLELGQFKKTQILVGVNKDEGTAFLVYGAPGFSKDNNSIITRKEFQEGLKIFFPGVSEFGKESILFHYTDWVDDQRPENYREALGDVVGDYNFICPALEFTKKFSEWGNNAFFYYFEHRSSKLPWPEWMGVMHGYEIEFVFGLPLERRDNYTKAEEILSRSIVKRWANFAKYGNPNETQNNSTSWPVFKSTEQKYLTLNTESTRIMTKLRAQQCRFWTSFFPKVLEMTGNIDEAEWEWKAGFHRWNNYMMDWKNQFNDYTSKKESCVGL

[12] = tested on: SH-SY5Y; assay: Neuroprotective activity against amyloid beta (1 to 42 residues)-induced cell injury in human SH-SY5Y cells assessed as cell viability at 5 uM preincubated for 2 hrs followed by H2O2 addition and measured after 24 hrs by MTT assay (reference value: 52.3 %); type: functional; conditions: time 26 hrs, read-out: Activity
[13] = Acute toxicity in 2 dpf zebrafish assessed as abnormal notochord at 1.39 to 12.5 ug/ml measured after 3 days; design: species or system Danio rerio; conditions: in vivo, 72 h, dose 1.39-12.5 µg/ml, time 3 day
[14] = species: Danio rerio; assay: Antialzheimer activity against 3 dpf zebrafish model of AlCl3-induced AD assessed as motility by measuring change in speed at 4.2 ug/ml (reference value: 1.05 mm/s); type: functional; conditions: dose 4.2 µg/ml
[15] = Acute toxicity in 2 dpf zebrafish assessed as small or misshapen eyes at 1.39 to 12.5 ug/ml measured after 3 days; design: species or system Danio rerio; conditions: in vivo, 72 h, dose 1.39-12.5 µg/ml, time 3 day
[16] = tested on: PC-12; assay: Neuroprotective activity against H2O2-induced cell injury in rat PC-12 cells assessed as cell viability at 10 uM preincubated for 2 hrs followed by H2O2 addition and measured after 24 hrs by MTT assay (reference value: 53.8 %); type: functional; conditions: time 26 hrs, read-out: Activity
[17] = Metal chelating activity assessed as Fe2+-compound complex formation at 37.5 uM in presence of 37.5 uM FeSO4 by UV-Vis spectrophotometric analysis
[18] = Metal chelating activity assessed as Cu2+-compound complex formation by measuring absorption wavelength at 37.5 uM in presence of 37.5 uM CuCl2 by UV-Vis spectroscopic analysis
[19] = species: Danio rerio; assay: Antialzheimer activity against 3 dpf zebrafish model of AlCl3-induced AD assessed as motility by measuring efficacy on speed change at 4.2 ug/ml relative to control; type: functional; conditions: dose 4.2 µg/ml
[20] = species: Danio rerio; assay: Antialzheimer activity against 3 dpf zebrafish model of AlCl3-induced AD assessed as efficacy on motility distance at 4.2 ug/ml relative to control; type: functional; conditions: dose 4.2 µg/ml
[21] = Cytotoxicity against human L02 cells assessed as cell viability at 50 uM measured after 72 hrs by MTT assay relative to control; type: cell-based; conditions: read-out: Activity
[22] = Metal chelating activity assessed as Al3+-compound complex formation by measuring absorption wavelength at 37.5 uM in presence of 37.5 uM AlCl3 by UV-Vis spectrophotometric analysis
[23] = Acute toxicity in 2 dpf zebrafish assessed as body shape at 1.39 to 12.5 ug/ml measured after 3 days; design: species or system Danio rerio; conditions: in vivo, 72 h, dose 1.39-12.5 µg/ml, time 3 day
[24] = species: Danio rerio; assay: Antialzheimer activity against 3 dpf zebrafish model of AlCl3-induced AD assessed as motility by measuring change in speed at 1.4 ug/ml (reference value: 1.05 mm/s); type: functional; conditions: dose 1.4 µg/ml
[25] = species: Danio rerio; assay: Antialzheimer activity against 3 dpf zebrafish model of AlCl3-induced AD assessed as motility by measuring efficacy on speed change at 1.4 ug/ml relative to control; type: functional; conditions: dose 1.4 µg/ml
[26] = Acute toxicity in 2 dpf zebrafish assessed as slow blood flow at 1.39 to 12.5 ug/ml measured after 3 days; type: tissue-based, Danio rerio; conditions: 72 h, dose 1.39-12.5 µg/ml, time 3 day
[27] = species: Danio rerio; assay: Protection against amyloid beta (1 to 40 residues)-induced vascular injury in transgenic zebrafish assessed as efficacy on motility at 12.5 ug/ml relative to control; type: functional; conditions: dose 12.5 µg/ml
[28] = Acute toxicity in 2 dpf zebrafish assessed as short or misshapen jaw at 1.39 to 12.5 ug/ml measured after 3 days; design: species or system Danio rerio; conditions: in vivo, 72 h, dose 1.39-12.5 µg/ml, time 3 day
[29] = Acute toxicity in 2 dpf zebrafish assessed as precipitation at 20 ug/ml measured after 3 days; design: species or system Danio rerio; conditions: in vivo, 72 h, dose 20 µg/ml, time 3 day
[30] = Cytotoxicity against human L02 cells assessed as cell viability at 6.25 uM measured after 72 hrs by MTT assay relative to control; type: cell-based; conditions: read-out: Activity
[31] = Toxicity in 3 dpf zebrafish model of AlCl3-induced AD assessed as minimum toxic concentration; design: species or system Danio rerio; conditions: in vivo

SMILES: CCN(C)C(=O)Oc1ccc(-c2cc(=O)c3c(O)cc(OC(=O)N(C)CC)cc3o2)cc1
- MNTC at 72 h [1]: 12.5 µg/mL
- Activity [2]: 66.2%
- Activity [3]: Non-Toxic
- Activity [4]: 96.87%
- IC50 [5]: 4.7 µM
- Activity [6]: inactive
- Activity [7]: inactive
- Efficacy [8]: 18%
- Activity [9]: Non-Toxic
- Activity [10]: Non-Toxic
- Activity [11]: 54.1%
- viability at 5 µM [12]: 63.9%
- Activity [13]: Non-Toxic
- Activity [14]: 1.98 millimeter/sec
- Activity [15]: Non-Toxic
- viability at 10 µM [16]: 76.7%
- Activity [17]: inactive
- Activity [18]: 398 nm
- Efficacy [19]: 72%
- Efficacy [20]: 65%
- viability at 72 h, 50 µM [21]: 59.7%
- Activity [22]: 384 nm
- Activity [23]: Non-Toxic
- Activity [24]: 1.8 millimeter/sec
- Efficacy [25]: 58%
- Activity [26]: Non-Toxic
- Efficacy [27]: 64%
- Activity [28]: Non-Toxic
- Activity [29]: Toxic
- viability at 72 h, 6.25 µM [30]: 99%
- MTC [31]: 12.5 µg/mL
